pIC50: −log10 of the molar value.
Columns and labels:
[1] = system: Caco-2 cell monolayers; test: Caco-2 assay (permeability and efflux ratio); assay type: in vitro ADME; details: 10 μM
Method: The assay provides information on the potential of a compound to pass the cell membrane, on the extent of oral absorption as well as on whether the compound is actively transported by uptake and/or efflux transporters. Permeability measurements across polarized, confluent Caco-2 cell monolayers grown on permeable filter supports (Corning, catalog #3391) are used. 10 μM test compound solution in assay buffer (128.13 mM NaCl, 5.36 mM KCl, 1 mM MgSO4, 1.8 mM CaCl2), 4.17 mM NaHCO3, 1.19 mM Na2HPO4, 0.41 mM NaH2PO4, 15 mM 2-[4-(2-hydroxyethyl)piperazin-1-yl]ethanesulfonic acid (HEPES), 20 mM glucose, pH 7.4) was added to the donor compartment of the cell chamber containing a monolayer of Caco-2 cells in between the donor and the receiver compartment. The receiver and donor compartments contain 0.25% bovine serum albumine (BSA) in assay buffer. Passive diffusion and/or active transport of compounds across the monolayer is measured in both apical to basolateral (a-b) and basolateral to apical (b-a) direction. a-b permeability (PappAB) represents drug absorption from the intestine into the blood and b-a permeability (PappBA) drug secretion from the blood back into the intestine via both passive permeability as well as active transport mechanisms mediated by efflux and uptake transporters that are expressed on the Caco-2 cells. After a pre-incubation of 25-30 min at 37° C., at predefined time points (0, 30, 60 and 90 min), samples were taken from the receiver and donor compartment, respectively. Concentrations of test compounds in samples were measured by HPLC/MS/MS, samples from the donor compartment were diluted 1:50 (v:v) with assay buffer, samples from receiver compartment were measured without dilution.
Apparent permeabilities in a-b (PappAB) and b-a (PappBA) directions are calculated according to the formula:
[formula] • Vrec [mL]: buffer volume in receiver compartment • Cdon [μmol/mL]: concentration of test compound in donor compartment at t=0 • ΔCrec: difference between concentrations of test compound in receiver compartment at start and end of incubation time • Δt: Incubation time • Vrec·ΔCrec/Δt [μmol/min]: Amount of compound transferred to receiver compartment per time • A [cm^2]: filter surface
Caco-2 efflux ratios (ER) are calculated as the ratio of PappBA/PappAB.

[2] = target: CYP3A4 (Homo sapiens (Human), UniProt P08684); test: Mechanism based inhibition of CYP3A4 assay (MBI 3A4); assay type: in vitro ADME; details: human liver microsomes, 25 uM compound; hydroxy-midazolam formation after 30 min preincubation relative to 0 min
Sequence of CYP3A4 (P08684 whole entry): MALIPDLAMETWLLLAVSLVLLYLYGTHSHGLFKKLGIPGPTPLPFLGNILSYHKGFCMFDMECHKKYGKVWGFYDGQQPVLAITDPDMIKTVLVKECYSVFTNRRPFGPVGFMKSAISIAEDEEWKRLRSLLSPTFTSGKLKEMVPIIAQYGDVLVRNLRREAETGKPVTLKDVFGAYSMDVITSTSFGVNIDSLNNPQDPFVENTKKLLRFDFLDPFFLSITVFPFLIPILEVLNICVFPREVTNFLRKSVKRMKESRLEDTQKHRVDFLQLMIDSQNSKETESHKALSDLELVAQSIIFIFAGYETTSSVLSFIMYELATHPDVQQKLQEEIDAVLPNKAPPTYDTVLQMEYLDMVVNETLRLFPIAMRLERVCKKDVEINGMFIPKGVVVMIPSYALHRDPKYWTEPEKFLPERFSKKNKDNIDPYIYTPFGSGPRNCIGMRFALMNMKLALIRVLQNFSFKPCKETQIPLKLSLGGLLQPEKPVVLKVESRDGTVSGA
Method: The time dependent inhibition towards CYP3A4 is assayed in human liver microsomes (0.02 mg/mL) with midazolam (15 μM) as a substrate. The test compounds and water control (wells w/o test compound) are preincubated in presence of NADPH (1 mM) with human liver microsomes (0.2 mg/mL) at a concentration of 25 uM for 0 min and 30 min. After preincubation, the incubate is diluted 1:10 and the substrate midazolam is added for the main incubation (15 min). The main incubation is quenched with acetonitrile and the formation of hydroxy-midazolam is quantified via LC/MS-MS. The formation of hydroxy-midazolam from the 30 min preincubation relative to the formation from the 0 min preincubation is used as a readout. Values of less than 100% mean that the substrate midazolam is metabolized to a lower extent upon 30 min preincubation compared to 0 min preincubation. In general low effects upon 30 min preincubation are desired (corresponding to values close to 100%/not different to the values determined with water control).

[3] = target: KRAS (G12D)::CRAF protein::protein interaction (Homo sapiens (Human), UniProt P01116, G12D); test: KRAS TR-FRET assay (KRAS G12D::CRAF, GTP); assay type: binding
Sequence of KRAS (G12D)::CRAF protein::protein interaction (P01116 other isoform, or with tags, fused parts or gaps G12D): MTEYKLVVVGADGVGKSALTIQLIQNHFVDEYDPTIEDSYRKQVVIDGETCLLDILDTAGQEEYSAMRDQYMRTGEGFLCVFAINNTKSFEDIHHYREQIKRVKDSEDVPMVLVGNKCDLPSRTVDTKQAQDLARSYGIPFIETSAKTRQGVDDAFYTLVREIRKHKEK
Method: This assay measures the inhibitory effect of compounds on KRAS::CRAF protein::protein interactions in the presence of GTP using Time-resolved fluorescence energy transfer (TR-FRET).
The following wildtype or mutant alleles of KRAS and CRAF protein have been used at the given concentrations:
KRAS (G12D) 1-169, N-terminal 6His-tag, C-terminal avi-tag (Xtal BioStructures, Inc.); final assay concentration 15 nM,
CRAF Ras binding domain, GST-tag, TEV cleavage site (Boehringer Ingelheim in house protein prep); final assay concentration 15 nM.
Test compounds dissolved in DMSO were dispensed onto assay plates (Proxiplate 384 PLUS, white, PerkinElmer; 6008289) using an Access Labcyte Workstation with the Labcyte Echo 55x. For the chosen highest assay concentration of 100 μM, 150 nl of compound solution was transferred from a 10 mM DMSO compound stock solution. A series of eleven fivefold dilutions per compound was transferred to the assay plate, compound dilutions were tested in duplicates. DMSO was added as backfill to a total volume of 150 nl.
The assay runs on a fully automated robotic system. To 150 nl of compound dilution 15 μl of a mix including the respective KRAS allele, CRAF (e.g. KRAS (G12D)::CRAF; final assay concentrations see above), GTP nucleotide (Sigma G8877; final assay concentration 10 μM), Lance Eu—W1024 labeled Streptavidin (PerkinElmer, Cat No AD0063; final assay concentration 1.5 nM) and Anti-GST surelight APC (PerkinElmer, Cat No AD0059G; final assay concentration 30 nM) in assay buffer (1×PBS, 0.1% BSA, 0.05% Tween 20) are added into columns 1-23 and 15 μL of the solution without the respective KRAS allele were added to row 24.
Plates are kept at room temperature in a darkened incubator. After 60 minutes incubation time the signal is measured in a PerkinElmer Envision HTS Multilabel Reader using the TR-FRET LANCE Ultra specs from PerkinElmer.
Each plate contains 16 wells of a negative control (diluted DMSO instead of test compound; w respective KRAS allele; column 23) and 16 wells of a positive control (diluted DMSO instead of test compound; w/o respective KRAS allele; column 24).
IC50 values were calculated and analyzed with Boehringer Ingelheim's MEGALAB 50 application using a 4 parametric logistic model.
Tables of example compounds disclosed herein contain IC50 values determined using the above assays (see Table 44).

## C[C@H](Oc1nc(-c2noc3c2CCC[C@@]32CCCc3sc(N)c(C#N)c32)nc2c1CC[C@]21CNCCO1)[C@@H]1C[C@@H](F)CN1C [II-20]
[1]; Caco-2 apical to basolateral permeability, pH 7.4
  Caco PappAB: 0.3 ×10⁻⁶ cm/s
[1]; Caco-2 efflux ratio PappBA/PappAB
  Caco ER: 303.8
[2]
  MBI 3A4: 95%
[3]
  pIC50: 7.09

From patent US20250019385A1, “SPIROCYCLIC ANNULATED 2-AMINO-3-CYANO THIOPHENES AND DERIVATIVES FOR THE TREATMENT OF CANCER” (Boehringer Ingelheim International GmbH, priority 2023, published 2025)
